Read-outs that look alike come from different tables or passages of the source.
Key:
[1] = target: T1, dopamine transporter (Rattus norvegicus, UniProt P23977); test: [3H]WIN 35,428 binding to rat striatal membranes / dopamine transporter binding (DAT)
T1 construct: from tissue; P2 synaptosomes for uptake
Method: (§1) Determination of inhibitory binding potencies of analogues at dopamine, serotonin, and norepinephrine transporters are carried out using standard receptor binding assays which are known in the art.
A. Dopamine Transporter Binding (DAT)

[2] = target: norepinephrine transporter (Rattus norvegicus, UniProt Q9WTR4); test: Norepinephrine transporter binding (NET)
Method: as §1
C. Norepinephrine Transporter Binding (NET)
J. Med Chem., 36, 2886-2890.

[3] = target: serotonin transporter (Rattus norvegicus, UniProt P31652); test: Serotonin transporter binding (5-HTT)
Method: as §1
B. Serotonin Transporter Binding (5-HTT)
Mol. Pharmacol., 39, 339.

[4] = test system: dopamine transporter; details: cited from earlier work; for protection from the effect of 10 mM N-ethylmaleimide: 10 μM cocaine, 300 μM dopamine, d-amphetamine
[5] = test system: Sprague-Dawley rats; test: Locomotor activity (distance traveled, stereotypic behavior); type: in vivo
[6] = Drug discrimination, substitution for amphetamine; type: in vivo; details: for response rates across test doses: amphetamine discrimination
[7] = Drug discrimination, substitution for cocaine and co-administration with cocaine; type: in vivo
[8] = test system: rats; test: Intravenous drug self-administration; type: in vivo; details: for self-administration responding: i.v., FR10, cocaine 1 mg/kg/infusion, analog 2 0.3-3 mg/kg/infusion, analog 3 0.125-0.5 mg/kg infusion, vs saline extinction
Text: J. Neurosci., 16, 7416-7427.
Rats were initially trained to lever press for food pellets in standard operant boxes. Following lever press training, rats were implanted with polyvinyl chloride catheters into femoral veins under halothane anesthesia (2-3% in medical grade oxygen) and were allowed to recover for an additional 7 days before initiation of i.v. drug self-administration testing. During drug self-administration sessions, food pellets were no longer delivered, and instead intravenous injections of drugs were delivered by way of the catheter.
Following this second extinction test, self-administration of piperidine analog 2 was studied at doses of 1, 3, and 0.3 mg/kg/infusion in that order. Each dose was tested for five days. During all the re-acquisition test days, a priming infusion was given at the start of the session on each day.

[9] = target: T1, dopamine transporter; test: Inhibition of high-affinity [3H]dopamine uptake into rat striatal nerve endings (synaptosomes); type: biochemical
Method: A. [^3H]Dopamine Uptake Studies
The effect of candidate compounds in antagonizing dopamine high-affinity uptake was determined using a method previously employed. For [^3H]DA uptake, dissected rat striata were homogenized with a Teflon-glass pestle in ice-cold 0.32 M sucrose and centrifuged for 10 min at 1000×g. The supernatant was centrifuged at 17,500×g for 20 min. This P2 synaptosomal pellet was resuspended in 30 volumes of ice-cold modified KRH buffer. An aliquot of the synaptosomal suspension was preincubated with the buffer and drug for 30 min at 37° C., and uptake initiated by the addition of [^3H]dopamine (5 nM, final concentration). After 5 min, uptake was terminated by adding 5 mL of cold buffer containing glucosamine as a substitute for NaCl and then finally by rapid vacuum filtration over GF-C glass fiber filters, followed by washing with two 5 mL volumes of ice-cold, sodium-free buffer. Radioactivity retained on the filters was determined by liquid scintillation spectrometry. […] It is identical to that calculated by subtracting the mean of identical tubes incubated at 0° C.

[10] = IC50 (nM) [3H]WIN 35,428 binding, rat striatal membranes, Table 1
[11] = Table 2, read-out: DAT IC50 (nm)
[12] = rat striatal membranes, Table 1, read-out: IC50 (nM) [3H]WIN 35,428 binding
[13] = Table 2, unit inferred, read-out: Dopamine Uptake
[14] = rat striatal synaptosomes, Table 1, read-out: IC50 (nM) [3H]dopamine uptake
[15] = Table 2, read-out: NET IC50 (nm)
[16] = Table 2, read-out: 5-HTT IC50 (nm)

T1 sequence (P23977 whole entry): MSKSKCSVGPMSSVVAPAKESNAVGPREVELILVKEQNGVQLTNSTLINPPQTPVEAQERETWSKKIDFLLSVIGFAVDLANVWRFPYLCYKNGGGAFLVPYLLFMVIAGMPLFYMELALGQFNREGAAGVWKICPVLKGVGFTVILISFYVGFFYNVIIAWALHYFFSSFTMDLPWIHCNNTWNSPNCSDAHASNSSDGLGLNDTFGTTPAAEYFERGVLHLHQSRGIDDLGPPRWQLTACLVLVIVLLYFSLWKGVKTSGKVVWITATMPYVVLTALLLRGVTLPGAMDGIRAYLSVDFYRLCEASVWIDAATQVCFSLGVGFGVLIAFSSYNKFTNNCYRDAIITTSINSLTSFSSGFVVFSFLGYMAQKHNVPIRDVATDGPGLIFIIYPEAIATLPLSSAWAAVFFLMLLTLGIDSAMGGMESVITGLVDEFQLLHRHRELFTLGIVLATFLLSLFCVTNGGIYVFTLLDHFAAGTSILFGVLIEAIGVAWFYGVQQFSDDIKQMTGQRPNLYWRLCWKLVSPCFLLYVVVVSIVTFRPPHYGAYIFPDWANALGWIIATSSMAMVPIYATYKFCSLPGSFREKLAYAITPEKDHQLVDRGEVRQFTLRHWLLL
Chain of serotonin transporter (P31652 whole entry): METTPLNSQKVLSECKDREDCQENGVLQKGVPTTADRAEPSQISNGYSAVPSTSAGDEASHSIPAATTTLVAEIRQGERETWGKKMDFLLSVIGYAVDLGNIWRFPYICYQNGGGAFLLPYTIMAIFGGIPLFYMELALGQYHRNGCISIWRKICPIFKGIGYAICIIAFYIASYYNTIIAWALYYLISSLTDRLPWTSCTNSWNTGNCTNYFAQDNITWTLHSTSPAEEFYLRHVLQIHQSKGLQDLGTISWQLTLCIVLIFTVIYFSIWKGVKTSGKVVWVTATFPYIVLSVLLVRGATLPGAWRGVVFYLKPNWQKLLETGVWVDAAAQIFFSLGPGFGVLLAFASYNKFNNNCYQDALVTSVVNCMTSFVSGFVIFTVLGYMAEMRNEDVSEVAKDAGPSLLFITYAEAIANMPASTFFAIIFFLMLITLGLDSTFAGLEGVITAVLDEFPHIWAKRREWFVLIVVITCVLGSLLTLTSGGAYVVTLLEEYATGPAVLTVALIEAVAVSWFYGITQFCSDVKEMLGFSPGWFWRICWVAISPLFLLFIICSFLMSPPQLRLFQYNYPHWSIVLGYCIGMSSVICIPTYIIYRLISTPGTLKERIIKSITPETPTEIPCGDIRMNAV
Chain of norepinephrine transporter (Q9WTR4 1-597): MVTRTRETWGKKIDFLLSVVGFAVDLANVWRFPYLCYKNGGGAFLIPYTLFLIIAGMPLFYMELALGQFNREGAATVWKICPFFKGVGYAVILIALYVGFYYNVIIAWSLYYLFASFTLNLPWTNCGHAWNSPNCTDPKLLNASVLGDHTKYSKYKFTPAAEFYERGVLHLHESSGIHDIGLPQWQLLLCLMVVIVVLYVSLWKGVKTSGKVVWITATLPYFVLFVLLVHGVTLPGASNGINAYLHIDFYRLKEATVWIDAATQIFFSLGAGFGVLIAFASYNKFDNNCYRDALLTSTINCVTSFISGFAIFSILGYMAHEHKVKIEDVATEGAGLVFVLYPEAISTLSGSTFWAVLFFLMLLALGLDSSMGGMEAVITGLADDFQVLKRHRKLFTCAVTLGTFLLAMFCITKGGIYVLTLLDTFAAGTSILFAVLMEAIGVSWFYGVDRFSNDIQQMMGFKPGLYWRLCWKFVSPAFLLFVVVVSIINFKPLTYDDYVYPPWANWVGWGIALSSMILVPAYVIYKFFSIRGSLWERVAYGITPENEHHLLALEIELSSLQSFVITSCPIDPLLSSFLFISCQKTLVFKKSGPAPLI

Structure (SMILES): COC(=O)C1CN(C)CCC1c1ccc2ccccc2c1 (racemic) [Compound 75, (±)-Methyl 4-(2-Naphthyl)-1-methylpiperidine-3-carboxylate]
- IC50 ([1]; DAT IC50 (nm), Table 2): 78 nM
- IC50 [2]: 607 nM
- IC50 ([3]; 5-HTT IC50 (nm), Table 2): 366 nM

Structure (SMILES): NCCc1ccc(O)c(O)c1 [dopamine]
- protection from the effect of 10 mM N-ethylmaleimide [4]: neither 300 μM dopamine nor d-amphetamine afforded any significant protection

Structure (SMILES): COC(=O)[C@@H]1CN(C)CC[C@H]1c1ccc(Cl)cc1 (racemic) [Compound 2, (±)-trans-Methyl 4-(4-Chlorophenyl)-1-methylpiperidine-3-carboxylate]
- IC50 ([1]; DAT IC50 (nm), Table 2): 196 nM
- IC50 [1, 10]: 197 ± 7.9 nM
- time course of stereotypic response ([5]; 90 minutes following the drug injection): persistent at 90 minutes
- distance traveled ([5]; i.p., cocaine 10 mg/kg, analog 2 3-20 mg/kg, vs saline control): did not alter
- stereotypic behavior / stereotypic time ([5]; i.p., cocaine 10 mg/kg, analog 2 10 and 20 mg/kg): small, statistically nonsignificant increase
- response rates across test doses [6]: remained fairly stable
- maximum amphetamine-lever responding ([6]; substitution tests): 53%
- drug choice and response rate performance on co-administration with cocaine ([7]; analog 2 10 mg/kg plus cocaine 1.25 and 5 mg/kg, vs cocaine alone): did not significantly alter
- response rates compared with cocaine (10 mg/kg) ([7]; analog 2 5 and 10 mg/kg): substantially lower
- maximum cocaine-lever responding ([7]; analog 2 5 and 20 mg/kg): 40%
- number of infusions delivered vs saline extinction test ([8]; analog 2, all doses tested): not significantly different
- self-administration responding [8]: failed to restore

Structure (SMILES): COC(=O)C1CN(C)CCC1c1ccc(Br)cc1 (single isomer, unassigned; (+)) [Compound 69, (+)-Methyl 4β-(4-Bromophenyl)-1-methylpiperidine-3β-carboxylate]
- IC50 ([1]; DAT IC50 (nm), Table 2): 406 nM
- IC50 [2]: 21600 nM
- IC50 ([3]; 5-HTT IC50 (nm), Table 2): 4130 nM
- melting point: 125 to 126 °C

Structure (SMILES): COC(=O)C1CN(Cc2ccccc2)CCC1c1ccc(Cl)cc1 (single isomer, unassigned; (-)) [Compound 47, (−)-Methyl 4β-(4-Chlorophenyl)-1-benzylpiperidine-3β-carboxylate]
- IC50 ([1]; DAT IC50 (nm), Table 2): 917 nM
- melting point: 119 to 121 °C

Structure (SMILES): CN1CCC(c2ccc(Cl)cc2)C(C(=O)Oc2ccccc2)C1 (single isomer, unassigned; (+)) [Compound 59, (+)-Phenyl 4β-(4-Chlorophenyl)-1-methylpiperidine-3α-carboxylate]
- IC50 ([1]; DAT IC50 (nm), Table 2): 1460 nM
- IC50 [2]: 56500 nM
- IC50 ([3]; 5-HTT IC50 (nm), Table 2): 25100 nM

Structure (SMILES): C=Cc1ccc(C2CCN(C)CC2C(=O)OC)cc1 (single isomer, unassigned; (-)) [Compound 64, (−)-Methyl 4β-(4-Vinylphenyl)-1-methylpiperidine-3β-carboxylate]
- IC50 [2]: 65800 nM
- IC50 ([3]; 5-HTT IC50 (nm), Table 2): 13200 nM
- melting point: 68 to 69 °C

Structure (SMILES): COC(=O)C1CN(CCCc2ccccc2)CCC1c1ccc(Cl)cc1 (single isomer, unassigned; (-)) [Compound 48, (−)-Methyl 4β-(4-Chlorophenyl)-1-(3-phenylpropyl)-piperidine-3β-carboxylate]
- IC50 ([1]; DAT IC50 (nm), Table 2): 157 nM
- IC50 [2]: 1150 nM
- IC50 [3]: 73200 nM
- melting point: 73 to 75 °C

Structure (SMILES): COC(=O)[C@@H]1CN(C)CC[C@@H]1c1ccc(Cl)cc1 [Compound 3, (−)-Methyl 4β-(4-Chlorophenyl)-1-methylpiperidine-3β-carboxylate]
- IC50 [1, 11]: 25 nM
- IC50 [1, 12]: 24.8 ± 1.6 nM
- IC50 [9, 13]: 85 nM
- IC50 [9, 14]: 85.2 ± 2.6 nM
- IC50 [2]: 1630 nM
- self-administration responding [8]: reliably self-administered

Structure (SMILES): Cc1noc(C2CN(C)CCC2c2ccc(Cl)cc2)n1 (single isomer, unassigned; (+)) [Compound 56]
- IC50 [1, 11]: 172 nM
- IC50 [2, 15]: 1130 nM
- IC50 [3, 16]: > 10000 nM

Structure (SMILES): COC(=O)C1CN(C)CCC1c1ccc(Br)cc1 (single isomer, unassigned; (-)) [Compound 63, (−)-Methyl 4β-(4-Bromophenyl)-1-methylpiperidine-3β-carboxylate]
- IC50 ([1]; DAT IC50 (nm), Table 2): 3 nM
- IC50 ([3]; 5-HTT IC50 (nm), Table 2): 1100 nM
- melting point: 121 to 122 °C

Structure (SMILES): CCc1ccc(C2CCN(C)CC2C(=O)OC)cc1 (single isomer, unassigned; (-)) [Compound 81, (−)-Methyl 4β-(4-Ethylphenyl)-1-methylpiperidine-3β-carboxylate]
- IC50 [1, 11]: 1690 nM
- IC50 [2, 15]: > 10000 nM
- IC50 ([3]; 5-HTT IC50 (nm), Table 2): 15700 nM

Structure (SMILES): CCN1C(=O)C=CC1=O [N-Ethyhmaleimide]
- inhibition of the specific binding of [3H]mazindol ([4]; background): about 95%

Structure (SMILES): CN1CC[C@H](c2ccc(Cl)cc2)[C@@H](CCCO)C1 [Compound 54]
- IC50 ([1]; DAT IC50 (nm), Table 2): 15 nM
- IC50 [2]: 563 nM
- IC50 [3]: 2810 nM

Structure (SMILES): COC(=O)C1CN(S(=O)(=O)c2ccccc2)CCC1c1ccc(Cl)cc1 (single isomer, unassigned; (-)) [Compound 46, (−)-Methyl 4β-(4-Chlorophenyl)-1-phenylsulfonyl-piperidine-3β-carboxylate]
- IC50 ([1]; DAT IC50 (nm), Table 2): 26100 nM
- IC50 [2]: > 10000 nM
- melting point: 76 to 78 °C

Structure (SMILES): CC(=O)OC[C@@H]1CN(C)CC[C@@H]1c1ccc(Cl)cc1 [Compound 7, (−)-3β-(Acetoxymethyl)-4β-(4-chlorophenyl)-1-methylpiperidine]
- IC50 ([1]; DAT IC50 (nm), Table 2): 10 nM
- IC50 [1, 12]: 44.7 ± 10.5 nM
- IC50 [9, 13]: 63 nM
- IC50 [9, 14]: 62.9 ± 2.7 nM
- IC50 [2]: 233 nM
- melting point: 76 °C

Structure (SMILES): C[C@H](N)Cc1ccccc1 [d-amphetamine]
- protection from the effect of 10 mM N-ethylmaleimide [4]: neither 300 μM dopamine nor d-amphetamine afforded any significant protection

Structure (SMILES): CCCC1CN(C)CCC1c1ccc(Cl)cc1 (single isomer, unassigned; (+)) [Compound 15, (+) 4β-(4-Chlorophenyl)-1-methyl-3α-n-propylpiperidine]
- IC50 [1, 12]: 17.2 ± 0.5 nM
- IC50 [9, 13]: 23 nM
- IC50 [9, 14]: 23.2 ± 2.2 nM
- IC50 [2, 15]: 183 nM
- IC50 [3, 16]: 155 nM

Structure (SMILES): COC(=O)[C@@H]1CN(C)CC[C@@H]1c1ccc2ccccc2c1 (racemic) [Compound 74, (±)-Methyl 4β-(2-Naphthyl)-1-methylpiperidine-3β-carboxylate]
- IC50 ([1]; DAT IC50 (nm), Table 2): 13 nM
- IC50 [2]: 2570 nM
- IC50 ([3]; 5-HTT IC50 (nm), Table 2): 107 nM
- melting point: 100 to 101 °C

Structure (SMILES): COC(=O)[C@H]1CN(C)CC[C@@H]1c1ccc(Cl)cc1 [Compound 11, (+)-Methyl 4β-(4-Chlorophenyl)-1-methylpiperidine-3α-carboxylate]
- IC50 [1, 11]: 57 nM
- IC50 [1, 12]: 57.3 ± 8.1 nM
- IC50 [9, 13]: 34 nM
- IC50 [9, 14]: 34.6 ± 3.2 nM
- IC50 [2]: 4200 nM
- IC50 ([3]; 5-HTT IC50 (nm), Table 2): 1620 nM

Structure (SMILES): COC(=O)[C@@H]1CN(C)CC[C@@H]1c1ccc(Cl)cc1 (racemic) [Compound 1, (±)-cis-Methyl 4-(4-Chlorophenyl)-1-methylpiperidine-3-carboxylate]
- IC50 ([1]; DAT IC50 (nm), Table 2): 22 nM
- IC50 [1, 10]: 53.7 ± 1.9 nM
- IC50 [9, 14]: 37.8 ± 7.9 nM
- melting point: 98 to 99 °C

Structure (SMILES): C=Cc1ccc(C2CCN(C)CC2C(=O)OC)cc1 (single isomer, unassigned; (+)) [Compound 65, (+)-Methyl 4β-(4-Vinylphenyl)-1-methylpiperidine-3α-carboxylate]
- IC50 ([3]; 5-HTT IC50 (nm), Table 2): 55700 nM

Structure (SMILES): CC(N)Cc1ccccc1 (stereo not drawn) [amphetamine, reference compound]
- response rates across test doses [6]: remained fairly stable
- substitution for the discriminative stimulus effects of amphetamine ([6]; substitution tests): dose-dependent and complete substitution

Structure (SMILES): COC(=O)C1CN(C)CCC1c1cccc2ccccc12 (racemic) [Compound 73, (±)-Methyl 4β-(1-Naphthyl)-1-methylpiperidine-3β-carboxylate]
- IC50 [1, 11]: 173 nM
- IC50 [2, 15]: 2700 nM
- IC50 ([3]; 5-HTT IC50 (nm), Table 2): 1310 nM
- melting point: 108 to 109 °C

Structure (SMILES): COC(=O)C1CN(C)CCC1c1ccc(Cl)cc1 (single isomer, unassigned; (-)) [Compound 12, (−)-Methyl 4β-(4-Chlorophenyl)-1-methylpiperidine-3α-carboxylate]
- IC50 ([1]; DAT IC50 (nm), Table 2): 653 nM
- IC50 [1, 10]: 653 ± 38 nM
- IC50 [9, 13]: 195 nM
- IC50 [9, 14]: 195 ± 8 nM

Structure (SMILES): CN1CCC(c2ccc(Cl)cc2)C(c2nc(-c3ccccc3)no2)C1 (single isomer, unassigned; (+)) [Compound 58]
- IC50 ([1]; DAT IC50 (nm), Table 2): 289 nM
- IC50 [3]: 7400 nM

From patent US6440996B1, “Monomeric and dimeric heterocycles, and therapeutic uses thereof” (priority 1998, dated 2002)
